Experimental data taken from DBAASP.
≈ marks a conversion by molar mass, not a printed value. Where “and” joins values, the source holds several entries; their conditions need not be identical. Equal entries are not always repeated.

Key:
Experiment in all cases: ≥ marks a high value that may be exact or a test limit, other limits are often not marked, values filed in µg/mL are converted to µM
Escherichia coli = tested on: Escherichia coli
[1] = tested on: Bifidobacterium longum subsp. infantis
Staphylococcus aureus = tested on: Staphylococcus aureus
[2] = tested on: Micrococcus luteus PTCC 1625
[3] = tested on: Klebsiella pneumoniae PTCC 1388
[4] = tested on: Staphylococcus aureus PTCC 1431
[5] = tested on: Escherichia coli HP101BA 7601c
Escherichia coli ML-35p = tested on: Escherichia coli ML-35p
[6] = tested on: Listeria monocytogenes EGD
Candida albicans 820 = tested on: Candida albicans 820
[7] = tested on: Escherichia coli ESBL 63103
[8] = tested on: Pseudomonas aeruginosa 213
[9] = tested on: Enterococcus faecalis W61950
[10] = tested on: Pseudomonas aeruginosa PAO1 H103
[11] = tested on: Staphylococcus aureus ATCC 25923
[12] = tested on: Enterococcus faecium t62764
[13] = tested on: Pseudomonas aeruginosa LES400
[14] = tested on: Staphylococcus aureus C623
[15] = tested on: Enterococcus faecalis f43559
[16] = tested on: Pseudomonas aeruginosa H1030
[17] = tested on: Pseudomonas aeruginosa 198
[18] = tested on: Klebsiella pneumoniae ESBL 63575
[19] = tested on: Pseudomonas aeruginosa H1027
[20] = tested on: Enterococcus faecalis ATCC 29212
[21] = tested on: Enterobacter cloacae 218R
[22] = tested on: Enterococcus faecium mic80
Pseudomonas aeruginosa 9 = tested on: Pseudomonas aeruginosa 9
[23] = tested on: Stenotrophomonas maltophilia ATCC 13637
[24] = tested on: Escherichia coli ESBL 64771
[25] = tested on: Klebsiella pneumoniae ESBL 61962
[26] = tested on: Staphylococcus aureus ATCC BAA-41
[27] = tested on: Staphylococcus aureus ATCC 6538P
[28] = tested on: Pseudomonas aeruginosa PAO1
Escherichia coli BL21 = tested on: Escherichia coli BL21
[29] = tested on: Staphylococcus epidermidis
[30] = tested on: Enterococcus faecalis 981
[31] = tested on: Staphylococcus carnosus KHS
[32] = tested on: Escherichia coli ATCC 25922
[33] = tested on: Psychrobacter faecalis X29
[34] = tested on: Bacillus licheniformis X39
[35] = tested on: Pseudomonas aeruginosa 11053
[36] = tested on: Rhodococcus rhodochrous X15
Serratia rubidaea X01 = tested on: Serratia rubidaea X01
[37] = tested on: Candida albicans ATCC 10231

SMILES: CC[C@H](C)[C@H](NC(=O)[C@H](CCC(N)=O)NC(=O)[C@@H](N)Cc1cnc[nH]1)C(=O)N[C@@H](Cc1ccc(O)cc1)C(=O)N1CCC[C@H]1C(=O)N[C@H](C(=O)N[C@H](C(=O)N[C@@H](CCC(N)=O)C(=O)N1CCC[C@H]1C(=O)N[C@@H](CC(C)C)C(=O)O)[C@@H](C)O)C(C)C [HQIYPVTQPL]
- MIC (Escherichia coli): > 2510 µM
- MIC [1]: ≥ 2510 µM
- MIC (Staphylococcus aureus): > 2510 µM

SMILES: CC(C)C[C@H](NC(=O)CNC(=O)[C@H](C)NC(=O)[C@@H](N)CCCN=C(N)N)C(=O)N[C@@H](CCCCN)C(=O)N[C@@H](Cc1ccccc1)C(=O)N1CCC[C@H]1C(=O)N[C@H](C(=O)NCC(=O)N[C@@H](CCCN=C(N)N)C(=O)N[C@H](C(=O)N[C@@H](Cc1cnc[nH]1)C(=O)N[C@@H](CCCN=C(N)N)C(=O)N[C@@H](CC(C)C)C(=O)N[C@@H](CC(C)C)C(=O)N[C@@H](CCCN=C(N)N)C(=O)O)C(C)C)C(C)C [RAGLKFPVGRVHRLLR]
- MIC [2]: 6 µM (≈ 11.3 µg/mL)
- MIC [3]: 10.6 µM (≈ 19.9 µg/mL)
- MIC [4]: 8.1 µM (≈ 15.2 µg/mL)
- MIC [5]: 9.6 µM (≈ 18 µg/mL)

SMILES: CC[C@H](C)[C@H](NC(=O)[C@@H]1CCCN1C(=O)[C@H](CCC(N)=O)NC(=O)[C@@H]1CCCN1C(=O)[C@@H](NC(=O)[C@H](CCC(N)=O)NC(=O)[C@H](CCC(N)=O)NC(=O)[C@H](CCSC)NC(=O)[C@H](CC(C)C)NC(=O)[C@@H]1CCCN1C(=O)[C@H](CCC(N)=O)NC(=O)[C@H](CC(C)C)NC(=O)[C@H](CC(C)C)NC(=O)[C@@H]1CCCN1C(=O)[C@H](CC(C)C)NC(=O)[C@@H]1CCCN1C(=O)[C@H](CC(C)C)NC(=O)[C@@H](N)Cc1cnc[nH]1)C(C)C)C(=O)O [HLPLPLLQPLMQQVPQPI]
- MIC (Escherichia coli): > 1450 µM
- MIC [1]: ≥ 1450 µM
- MIC (Staphylococcus aureus): > 1450 µM

SMILES: CC[C@H](C)[C@@H]1NC(=O)[C@H](CCCN=C(N)N)NC(=O)[C@@H]2CSSC[C@@H]3NC(=O)[C@H](C(C)C)NC(=O)CNC(=O)[C@H](Cc4ccccc4)NC(=O)[C@H](Cc4ccc(O)cc4)NC(=O)[C@H](C(C)C)NC(=O)[C@H](CCC(=O)O)NC(=O)[C@H](CC(C)C)NC(=O)CNC(=O)[C@H](CC(C)C)NC(=O)[C@H](CSSC[C@H](NC(=O)[C@H](CCCN=C(N)N)NC(=O)[C@H](CCCN=C(N)N)NC(=O)[C@H](C)NC(=O)[C@H](CC(C)C)NC(=O)[C@H](CCCN=C(N)N)NC(=O)CNC(=O)[C@H](Cc4cnc[nH]4)NC(=O)[C@H](CC(C)C)NC(=O)[C@H](Cc4ccccc4)NC3=O)C(=O)N[C@H](C(=O)N[C@@H](CCCN=C(N)N)C(=O)O)CSSC[C@H](NC(=O)[C@@H](NC(=O)[C@@H](N)CCCN=C(N)N)[C@@H](C)CC)C(=O)N[C@@H](CCCN=C(N)N)C(=O)N2)NC(=O)[C@H](CCCN=C(N)N)NC(=O)CNC1=O [RICRCRIGRCLGLEVYFGVCFLHGRLARRCCR]
- MIC (Escherichia coli ML-35p): 1.7 µM and 2.9 µM
- MIC [6]: 2.1 µM and 1.9 µM
- MIC (Candida albicans 820): 4 µM and 7.5 µM

SMILES: NCCCC[C@H](NC(=O)[C@H](CCCCN)NC(=O)[C@H](Cc1c[nH]c2ccccc12)NC(=O)[C@H](Cc1c[nH]c2ccccc12)NC(=O)[C@H](CCCN=C(N)N)NC(=O)[C@H](CCCCN)NC(=O)[C@@H](N)Cc1c[nH]c2ccccc12)C(=O)N[C@@H](Cc1c[nH]c2ccccc12)C(=O)N[C@@H](CCCN=C(N)N)C(=O)O [WKRWWKKWR]
- MIC [7]: 11 µM (≈ 16 µg/mL)
- MIC [8]: ≥ 43.2 µM
- MIC [9]: ≥ 87 µM
- MIC [10]: 11 µM (≈ 16 µg/mL)
- MIC [11]: 2.74 µM (≈ 4 µg/mL)
- MIC [12]: 2.74 µM (≈ 4 µg/mL)
- MIC [13]: 11 µM (≈ 16 µg/mL)
- MIC [14]: 2.74 µM (≈ 4 µg/mL)
- MIC [15]: ≥ 87 µM
- MIC [16]: 21.2 µM (≈ 31 µg/mL)
- MIC [17]: 21.2 µM (≈ 31 µg/mL)
- MIC [18]: 21.2 µM (≈ 31 µg/mL)
- MIC [19]: 2.74 µM (≈ 4 µg/mL)
- MIC [20]: 43.2 µM (≈ 63 µg/mL)
- MIC [21]: ≥ 43.2 µM
- MIC [22]: 11 µM (≈ 16 µg/mL)
- MIC (Pseudomonas aeruginosa 9): 21.2 µM (≈ 31 µg/mL)
- MIC [23]: 0.685 µM (≈ 1 µg/mL)
- MIC [24]: 1.37 µM (≈ 2 µg/mL)
- MIC [25]: ≥ 87 µM

SMILES: CC[C@H](C)[C@H](NC(=O)[C@H](CCCCN)NC(=O)[C@H](CCCCN)NC(=O)[C@H](Cc1ccccc1)NC(=O)[C@H](CCCCN)NC(=O)[C@H](CCCCN)NC(=O)[C@H](Cc1c[nH]c2ccccc12)NC(=O)[C@@H](N)CCCCN)C(=O)NCC(=O)N[C@@H](C)C(=O)N[C@H](C(=O)N[C@@H](CC(C)C)C(=O)N[C@@H](CCCCN)C(=O)N[C@@H](CCCCN)C(=O)N[C@@H](CC(C)C)C(=O)O)C(C)C [KWKKFKKIGAVLKKL]
- MIC [26]: 16 µM (≈ 29 µg/mL)
- MIC [27]: 16 µM (≈ 29 µg/mL)
- MIC [28]: 1.41 µM (≈ 2.57 µg/mL)
- MIC (Escherichia coli BL21): 1.41 µM (≈ 2.57 µg/mL)
- MIC [29]: 0.5 µM (≈ 0.908 µg/mL)

SMILES: CC[C@H](C)[C@@H]1NC(=O)[C@H](CCCCN)NC(=O)[C@@H](NC(=O)[C@H](Cc2ccccc2)NC(=O)[C@H](CC(C)C)NC(=O)[C@@H](NC(=O)[C@@H]2CCCN2C(=O)[C@@H](NC(=O)[C@@H](NC(=O)[C@H](CCCCN)NC(=O)[C@H](CO)NC(=O)[C@H](C)NC(=O)[C@@H](NC(=O)[C@H](CC(N)=O)NC(=O)[C@H](CC(C)C)NC(=O)[C@H](CC(C)C)NC(=O)[C@@H](NC(=O)[C@H](CO)NC(=O)[C@H](CC(C)C)NC(=O)[C@@H](N)Cc2ccccc2)[C@@H](C)O)C(C)C)C(C)C)C(C)C)[C@@H](C)O)CSSC[C@@H](C(=O)O)NC(=O)[C@H](CCCCN)NC(=O)[C@H](CCCCN)NC(=O)[C@H]([C@@H](C)O)NC1=O [FLSTLLNVASKVVPTLFCKITKKC]
- MIC [30]: 9 µM (≈ 23.9 µg/mL)
- MIC [31]: 9 µM (≈ 23.9 µg/mL)
- MIC [32]: 150 µM (≈ 398 µg/mL)
- MIC [33]: 9 µM (≈ 23.9 µg/mL)
- MIC [11]: 9 µM (≈ 23.9 µg/mL)
- MIC [34]: 9 µM (≈ 23.9 µg/mL)
- MIC [35]: ≥ 75 µM
- MIC [36]: 2.3 µM (≈ 6.1 µg/mL)
- MIC (Serratia rubidaea X01): 9 µM (≈ 23.9 µg/mL)
- MIC [37]: 150 µM (≈ 398 µg/mL)
